According to ChEMBL document CHEMBL1201862, “PubChem BioAssay data set” (2004):
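48-hour exposure; five concentrations; linearly interpolated endpoints. GI50 = concentration required for 50% inhibition of growth.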 Activity calls are given as the source filed them. No stated cut-off is given here; in the data, active = GI50 up to about 1.1 µM and inactive = higher.

Experiments:
Assay in all cases: NCI anticancer screen, dose series, 48 h
EKVX = system: EKVX
MDA-MB-435 = system: MDA-MB-435
DU-145 = system: DU-145
U-251 = system: U-251
HT-29 = system: HT-29
UACC-62 = system: UACC-62
SF-539 = system: SF-539
HCT-116 = system: HCT-116
NCI/ADR-RES = system: NCI/ADR-RES
BT-549 = system: BT-549
T47D = system: T47D
MDA-N = system: MDA-N
MOLT-4 = system: MOLT-4
NCI-H23 = system: NCI-H23
RPMI-8226 = system: RPMI-8226
OVCAR-3 = system: OVCAR-3
CCRF-CEM = system: CCRF-CEM
NCI-H226 = system: NCI-H226
TK-10 = system: TK-10
OVCAR-8 = system: OVCAR-8

Row | Structure (SMILES) | GI50 (EKVX) | GI50 (MDA-MB-435) | GI50 (DU-145) | GI50 (U-251) | GI50 (HT-29) | GI50 (UACC-62) | GI50 (SF-539) | GI50 (HCT-116) | GI50 (NCI/ADR-RES) | GI50 (BT-549) | GI50 (T47D) | GI50 (MDA-N) | GI50 (MOLT-4) | GI50 (NCI-H23) | GI50 (RPMI-8226) | GI50 (OVCAR-3) | GI50 (CCRF-CEM) | GI50 (NCI-H226) | GI50 (TK-10) | GI50 (OVCAR-8)
1 | COC(=O)C1Cc2ccc3c(c2C1=O)CCCC3 (stereo not given) | 70.5 µM (inactive) | > 100 µM (inactive) | > 100 µM (inactive) | 61.9 µM (inactive) | > 100 µM (inactive) | 81.1 µM (inactive) | > 100 µM (inactive) | 39.7 µM (inactive) | > 100 µM (inactive) | > 100 µM (inactive) | 23.2 µM (inactive) | > 100 µM (inactive) | 21.3 µM (inactive) | 74.5 µM (inactive) | 24.7 µM (inactive) | 80.7 µM (inactive) | 39.2 µM (inactive) | 92.9 µM (inactive) | > 100 µM (inactive) | 92.3 µM (inactive)
2 | O=C1OC2C=CCC1C2 (stereo not given) | > 100 µM (inactive) | > 100 µM (inactive) | > 100 µM (inactive) | > 100 µM (inactive) | > 100 µM (inactive) | > 100 µM (inactive) | > 100 µM (inactive) | > 100 µM (inactive) | > 100 µM (inactive) | > 100 µM (inactive) | > 100 µM (inactive) | > 100 µM (inactive) | > 100 µM (inactive) | > 100 µM (inactive) | > 100 µM (inactive) | > 100 µM (inactive) | > 100 µM (inactive) | > 100 µM (inactive) | > 100 µM (inactive) | > 100 µM (inactive)
3 | CCOC(=O)c1c(C)[n+]([O-])c2cc(Cl)c(Cl)cc2[n+]1[O-] | 24.1 µM (inactive) | 18.6 µM (inactive) | 16.6 µM (inactive) | 32.1 µM (inactive) | 33.5 µM (inactive) | 15.8 µM (inactive) | 26.1 µM (inactive) | 18.9 µM (inactive) | 23.8 µM (inactive) | 19.8 µM (inactive) | 16 µM (inactive) | 31 µM (inactive) | 16.2 µM (inactive) | 10.7 µM (inactive) | 14.4 µM (inactive) | 15.6 µM (inactive) | 18.5 µM (inactive) | 12 µM (inactive) | 18.1 µM (inactive) | 19.7 µM (inactive)
4 | CCCCCCCCCCCOCCC1C(C(C)OCCN2CCCC2)OC2OC(C)(C)OC21 (stereo not given) | 4.47 µM (inactive) | 1.89 µM (inactive) | 5.43 µM (inactive) | 2.24 µM (inactive) | 1.82 µM (inactive) | 1.81 µM (inactive) | 2.07 µM (inactive) | 1.82 µM (inactive) | 3.41 µM (inactive) | 3.13 µM (inactive) | 2.24 µM (inactive) | 1.95 µM (inactive) | 1.68 µM (inactive) | 3.91 µM (inactive) | 2.07 µM (inactive) | 4.95 µM (inactive) | 3.6 µM (inactive) | 8.79 µM (inactive) | 2.37 µM (inactive) | 3.13 µM (inactive)
5 | CSC(SC)=C(C#N)C(=O)Nc1ccc(Cl)cc1 | 44.7 µM (inactive) | 69.2 µM (inactive) | 74.6 µM (inactive) | 91 µM (inactive) | 35.6 µM (inactive) | 46 µM (inactive) | 27.7 µM (inactive) | 29.1 µM (inactive) | 44.4 µM (inactive) | 46.7 µM (inactive) | 25.4 µM (inactive) | 74.6 µM (inactive) | 27.7 µM (inactive) | 30.2 µM (inactive) | 26.4 µM (inactive) | > 100 µM (inactive) | 20.6 µM (inactive) | 23.6 µM (inactive) | 23.8 µM (inactive) | 52.8 µM (inactive)
6 | CCOC(=O)c1cc2cc(Cc3ccc4[nH]c(C(=O)OCC)cc4c3)ccc2[nH]1 | 21.5 µM (inactive) | 27.2 µM (inactive) | 31.3 µM (inactive) | 11.2 µM (inactive) | 35.4 µM (inactive) | 13.6 µM (inactive) | 13.7 µM (inactive) | 38.5 µM (inactive) | 13.4 µM (inactive) | 12.6 µM (inactive) | 32.4 µM (inactive) | 84.1 µM (inactive) | > 100 µM (inactive) | 14.7 µM (inactive) | 28.6 µM (inactive) | 73.6 µM (inactive) | 57.5 µM (inactive) | 18.6 µM (inactive) | 13.9 µM (inactive) | 5.94 µM (inactive)
7 | CN(C)Cc1cc(C(C)(C)C)ccc1-c1ccc(C(C)(C)C)cc1CN(C)C | 62.2 µM (inactive) | 84.3 µM (inactive) | > 100 µM (inactive) | 77.8 µM (inactive) | 35 µM (inactive) | > 100 µM (inactive) | > 100 µM (inactive) | > 100 µM (inactive) | > 100 µM (inactive) | > 100 µM (inactive) | > 100 µM (inactive) | > 100 µM (inactive) | > 100 µM (inactive) | > 100 µM (inactive) | 39.9 µM (inactive) | 43.3 µM (inactive) | 56.8 µM (inactive) | > 100 µM (inactive) | > 100 µM (inactive) | > 100 µM (inactive)
8 | CC(=O)OC1=CC(n2cc(F)c(=O)[nH]c2=O)OC(C)C1=O (stereo not given) | > 88.5 µM (inactive) | 11.4 µM (inactive) | 21.6 µM (inactive) | > 85.7 µM (inactive) | 10.7 µM (inactive) | 24.9 µM (inactive) | 3.01 µM (inactive) | 10.8 µM (inactive) | 40.2 µM (inactive) | 22.2 µM (inactive) | 16.7 µM (inactive) | 15.2 µM (inactive) | 39.8 µM (inactive) | 19.1 µM (inactive) | 26.5 µM (inactive) | 25.3 µM (inactive) | 75 µM (inactive) | > 97.3 µM (inactive) | > 77.4 µM (inactive) | 40.7 µM (inactive)
9 | CSC1=N/C(=C\c2ccc(C)cc2)C(=O)N1 | 52.8 µM (inactive) | > 100 µM (inactive) | > 100 µM (inactive) | 65.3 µM (inactive) | > 100 µM (inactive) | 89.3 µM (inactive) | 41.9 µM (inactive) | 40.6 µM (inactive) | > 100 µM (inactive) | 37.8 µM (inactive) | 25.2 µM (inactive) | > 100 µM (inactive) | 81.5 µM (inactive) | 51.8 µM (inactive) | > 100 µM (inactive) | > 100 µM (inactive) | 92.5 µM (inactive) | > 100 µM (inactive) | > 100 µM (inactive) | 95.3 µM (inactive)
10 | COc1ccc(/C=C(/C)[N+](=O)[O-])cc1 | 2.13 µM (inactive) | 1.95 µM (inactive) | 2.36 µM (inactive) | 1.62 µM (inactive) | 3.1 µM (inactive) | 1.68 µM (inactive) | 1.72 µM (inactive) | 1.75 µM (inactive) | 3.41 µM (inactive) | 2.75 µM (inactive) | 3.72 µM (inactive) | 2.05 µM (inactive) | 1.37 µM (inactive) | 2.03 µM (inactive) | 0.394 µM (active) | 1.82 µM (inactive) | 0.565 µM (active) | 21.1 µM (inactive) | 1.82 µM (inactive) | 2.22 µM (inactive)
